“And” between values parts separate entries of the source, which are not always exact repeats. Equal values may be shown once. “Also recorded” adds a separate entry of the source. Read-outs that look alike come from different tables or passages of the source.

For data set [1], the system named is LAT1/LAT2 (System L transporters) in BeWo-STB cells. As to the kind of experiment: Leucine uptake inhibition in BeWo-STB (forskolin-differentiated BeWo cells), Na+-free buffer, 3H-leucine. It is filed as cell-based, human. Conditions: for EC50 / inhibition of leucine uptake: BeWo-STB; for EC50: 3 min; for residual leucine uptake: 10 µM; for inhibition of leucine uptake: 10 µmol/L inhibitor. How it is done:
(§1) BeWo cells (clone b30) were cultured in DMEM containing 1.0 g/L glucose (DMEM‐lowGlucose; Gibco). […] Cells were cultured in DMEM‐lowGlucose at 37°C with 5% CO2 atmosphere for 7‐14 days.
JPH203, JG336 and JX009 were synthesized following the routes described in the European Patent Application EP 2‐959‐918‐A1, 2014. Compounds were obtained as hydrochlorides, dissolved in dimethyl sulfoxide (DMSO, Merck, Darmstadt, Germany) and applied in the concentration range from 0.001 to 31.6 μmol/L. JPH203 has been characterized as highly LAT1‐specific; JX009 is described as LAT1 and LAT2‐specific inhibitor. ^37 JG336 is a derivate of JPH203 with an additional methoxy group at the peripheral phenyl moiety residue. Compound structures are depicted in Figure 4. The ^1H‐NNMR and ^13C‐NMR spectra data of the compounds were in agreement with the expected structures and are included in the Supporting Information.
FIGURE 4 Inhibition of leucine uptake in BeWo cells using small molecule inhibitors with different specificities. Dose‐response experiments in BeWo‐cytotrophoblasts (BeWo‐CTB) and forskolin‐stimulated BeWo‐syncytiotrophoblasts (BeWo‐STB) for the established LAT1‐specific inhibitor JPH203 (A) and for the alternative compound JG336 which carries an additional methoxy group as marked in the dashed red box (B). […] BCH is a widely accepted inhibitor blocking all System L mediated transport. […] (A‐C) The new inhibitors JG336 and JX009 as well as JPH203 reached maximal inhibition (first concentration without significant difference to the bottom value) at a concentration of 10 µmol/L, JG336 required 1 µmol/L for maximal inhibition in BeWo‐CTB. BCH reached maximal inhibition at 1 mmol/L in both differentiation stages. […] Dose‐response kinetics were calculated using the nonlinear four‐parameter model [Y = Bottom + (Top − Bottom)/(1 + 10^((LogEC50‐X)*HillSlope))] and ordinary fit with GraphPad Prism software.

For data set [2], the target named is LAT1/LAT2 (System L transporters) in BeWo-CTB cells (Homo sapiens, UniProt Q01650). As to the kind of experiment: Leucine uptake inhibition in BeWo-CTB (undifferentiated BeWo cells), Na+-free buffer, 3H-leucine. It is filed as cell-based. The settings on record: for EC50: 3 min.
LAT1/LAT2 (System L transporters) in BeWo-CTB cells, sequence (Q01650 whole entry): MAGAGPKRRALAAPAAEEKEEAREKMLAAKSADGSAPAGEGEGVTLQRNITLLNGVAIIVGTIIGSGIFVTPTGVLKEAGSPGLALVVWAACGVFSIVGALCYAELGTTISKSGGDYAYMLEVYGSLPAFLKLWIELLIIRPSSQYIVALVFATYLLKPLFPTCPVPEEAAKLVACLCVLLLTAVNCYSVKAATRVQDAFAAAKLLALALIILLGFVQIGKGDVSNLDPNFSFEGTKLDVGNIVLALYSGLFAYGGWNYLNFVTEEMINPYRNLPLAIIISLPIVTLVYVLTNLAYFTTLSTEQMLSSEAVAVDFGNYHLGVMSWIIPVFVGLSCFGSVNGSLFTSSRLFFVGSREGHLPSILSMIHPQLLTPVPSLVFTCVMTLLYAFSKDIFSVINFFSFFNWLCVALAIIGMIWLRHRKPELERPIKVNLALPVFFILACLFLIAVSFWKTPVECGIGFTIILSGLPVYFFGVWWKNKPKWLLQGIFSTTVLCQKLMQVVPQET
LAT1/LAT2 (System L transporters) in BeWo-CTB cells, sequence (P08195 103-630 partner): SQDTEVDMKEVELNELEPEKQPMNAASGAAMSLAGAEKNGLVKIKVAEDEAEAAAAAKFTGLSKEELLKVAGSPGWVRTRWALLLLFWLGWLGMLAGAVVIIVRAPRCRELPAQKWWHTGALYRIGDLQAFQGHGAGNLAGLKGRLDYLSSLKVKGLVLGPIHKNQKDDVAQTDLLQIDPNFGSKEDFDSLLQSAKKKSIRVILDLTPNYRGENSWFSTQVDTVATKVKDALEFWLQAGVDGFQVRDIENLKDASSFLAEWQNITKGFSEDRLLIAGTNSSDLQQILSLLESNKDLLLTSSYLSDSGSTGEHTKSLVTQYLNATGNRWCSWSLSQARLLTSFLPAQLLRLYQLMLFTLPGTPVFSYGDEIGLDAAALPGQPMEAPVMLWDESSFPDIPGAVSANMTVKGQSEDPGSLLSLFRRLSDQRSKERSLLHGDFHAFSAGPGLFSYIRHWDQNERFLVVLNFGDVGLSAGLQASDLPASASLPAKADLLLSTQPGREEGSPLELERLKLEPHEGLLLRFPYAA
For data set [3], the target named is SLC7 transporters in HT-29 cells (Homo sapiens, UniProt Q01650). Briefly: Leucine uptake inhibition in HT-29 cells. Conditions: for EC50: EC50 of leucine uptake inhibition, Na+-free Hanks buffer.
SLC7 transporters in HT-29 cells, sequence (Q01650 whole entry): as the sequence (Q01650 whole entry) above
SLC7 transporters in HT-29 cells, sequence (P08195 102-630 partner): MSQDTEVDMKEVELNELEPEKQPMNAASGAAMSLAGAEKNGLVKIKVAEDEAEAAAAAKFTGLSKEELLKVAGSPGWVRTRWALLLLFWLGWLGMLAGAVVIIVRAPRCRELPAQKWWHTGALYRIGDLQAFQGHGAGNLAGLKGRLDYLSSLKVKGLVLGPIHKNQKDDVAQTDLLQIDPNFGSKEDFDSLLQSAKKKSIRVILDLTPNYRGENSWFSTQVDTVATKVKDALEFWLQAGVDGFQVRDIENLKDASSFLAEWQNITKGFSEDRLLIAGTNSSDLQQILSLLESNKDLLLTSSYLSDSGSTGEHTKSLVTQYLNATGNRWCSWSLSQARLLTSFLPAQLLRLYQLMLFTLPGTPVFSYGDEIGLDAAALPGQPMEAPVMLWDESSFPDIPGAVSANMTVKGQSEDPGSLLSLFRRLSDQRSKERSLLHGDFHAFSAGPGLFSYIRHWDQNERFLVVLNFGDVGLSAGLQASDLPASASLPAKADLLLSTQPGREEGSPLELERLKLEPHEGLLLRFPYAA
Data set [4] deals with Caco-2 cells. The arrangement: method as in PMID 21914964. Conditions: cited from earlier work.
For data set [5], the system named is LAT1/LAT2 (System L transporters) in polarized BeWo monolayer. Briefly: Leucine transfer across polarized BeWo monolayer (Transwell), apical to basal, and intracellular leucine content. It counts as cell-based, human. The method, then:
as §1
Before starting the transfer experiment, the formation of a tight trophoblast monolayer in BeWo cells was monitored by measuring transepithelial electrical resistance (TEER, [Ω*cm^2]) and passive diffusion as reported previously. ^38 TEER and cellular capacitance (Ccl, [µF/cm^2]) were measured every 30 minutes and analysed using the cellZscope system (nanoAnalytics, Münster, Germany) according to the manufacturer's instructions. The apparent permeability coefficient (Papp, [cm/s]) was calculated by measuring the rates of passive transfer of the paracellular pathway marker Lucifer yellow (LY) as previously described. ^39 BeWo monolayers with verified tightness were selected after 7 days of culturing on Transwell® membranes and randomly assigned to leucine transfer time courses and inhibition experiments. […] Radioactivity was quantified using Tri‐carb 2100TR Liquid Scintillation Counter (PerkinElmer).
FIGURE 5 Relevance of LAT1 and System L inhibition in leucine transfer across the placental barrier in vitro. A, Leucine transfer across a tight BeWo monolayer was measured from the apical (ie upper compartment) towards the basal (ie lower compartment) side during 6 h using the Transwell® system. […]

[6] abbreviates: 167 µmol/L leucine, Na+-free Hank's buffer, read-out: EC50 of leucine uptake inhibition.
[7] abbreviates: 167.2 µmol/L leucine, four-parameter fit, read-out: EC50 (best-fit value in Figure 4).
[8] abbreviates: BeWo-CTB, 167 µmol/L leucine, Na+-free Hank's buffer, read-out: EC50 of leucine uptake inhibition.
[9] abbreviates: BeWo-CTB, 167.2 µmol/L leucine, four-parameter fit, read-out: EC50 (best-fit value in Figure 4).

By EC50 is commonly meant the concentration giving half of the maximal effect. `NC1(C(=O)O)CC2CCC1C2` (stereo not drawn) [BCH, 2‐amino‐2‐norbornane‐carboxylic acid]: the “Bottom of dose-response fit (leucine uptake at maximal inhibition)” value in data set [1] came to 0 nmol/mg protein; in data set [2] (BeWo-CTB, four-parameter fit) it was 0 nmol/mg protein. Moreover, the “Top of dose-response fit (leucine uptake)” value (“Top of dose-response fit” below) in data set [1] is 9.770 nmol/mg protein; in data set [2] (BeWo-CTB, four-parameter fit), 5.305 nmol/mg protein. For the same molecule, the “times less effective than JX009” value in data set [1] is listed as above 100 times. The EC50 in data set [1] (setting [6]) came out at 442000 nM; in data set [1] (setting [7]) it was 442000 nM; in data set [2] (read-out: EC50 (best-fit value in Figure 4), BeWo-CTB, 167.2 µmol/L leucine, four-parameter fit), 709000 nM; in data set [2] (read-out: EC50 of leucine uptake inhibition, BeWo-CTB, 167 µmol/L leucine, Na+-free Hank's buffer), 709000 nM.

For `COc1ccc(-c2nc3cc(N)cc(COc4c(Cl)cc(C[C@H](N)C(=O)O)cc4Cl)c3o2)cc1` [JG336], the “extent of leucine uptake inhibition” value in data set [3] (167µM leucine) is “complete leucine uptake inhibition”. The EC50 in data set [3] (30µM leucine) is 210 nM; in data set [3] (167µM leucine, 3min), 730 nM; in data set [1] (setting [6]), 1990 nM and 2000 nM; in data set [1] (setting [7]), 1990 nM; in data set [2] (setting [8]), 800 nM; in data set [2] (setting [9]) it was 799 nM. In addition, the “Bottom of dose-response fit (leucine uptake at maximal inhibition)” value in data set [1] was 3.212 nmol/mg protein; in data set [2] (BeWo-CTB, four-parameter fit), 0.622 nmol/mg protein. The “Top of dose-response fit” value is reported as 8.534 nmol/mg protein in data set [1] and 2.673 nmol/mg protein in data set [2] (BeWo-CTB, four-parameter fit). Further, the “concentration reaching maximal inhibition (first concentration without significant difference to bottom value)” value in data set [1] was 10 µmol/L. The molecule further registered a residual leucine uptake in data set [1] of 3.2 nmol/mg protein. In addition, the “inhibition of leucine uptake” value in data set [1] was 62.4% and 62%. Also, the “concentration required for maximal inhibition” value in data set [2] (BeWo-CTB) was 1 µmol/L.

As for `Nc1cc(COc2c(Cl)cc(C[C@H](N)C(=O)O)cc2Cl)c2oc(-c3ccccc3)nc2c1` [JPH203], in data set [3] (167µM leucine), the “extent of leucine uptake inhibition” value is on record as “complete leucine uptake inhibition”. Further, the concentration for a half-maximal effect (EC50) in data set [3] (30µM leucine) was 150 nM; in data set [3] (167µM leucine, 3min), 2170 nM; in data set [1] (setting [6]), 2550 nM and 2600 nM; in data set [2] (setting [8]) it was 3100 nM; in data set [2] (setting [9]), 3080 nM. Further, the “Bottom of dose-response fit (leucine uptake at maximal inhibition)” value in data set [1] came to 3.758 nmol/mg protein; in data set [2] (BeWo-CTB, four-parameter fit) it was 0.716 nmol/mg protein. Further, the “Top of dose-response fit” value in data set [1] was found to be 8.593 nmol/mg protein; in data set [2] (BeWo-CTB, four-parameter fit), 3.888 nmol/mg protein. Also, in data set [1], the “concentration reaching maximal inhibition (first concentration without significant difference to bottom value)” value amounted to 10 µmol/L. Besides, the residual leucine uptake in data set [1] is 3.8 nmol/mg protein. In data set [1], the “inhibition of leucine uptake” value is 56.3% and 56%. In addition, the “permeability (membrane and cell layer)” value in data set [4] was “has been shown”.

As for `CN(C)c1ccc(-c2cccc(Oc3cccc(C[C@H](N)C(=O)O)c3)c2)cn1` [JX009], the “extent of leucine uptake inhibition” value in data set [3] (167µM leucine) is listed as “complete leucine uptake inhibition”. The 50% effective concentration (EC50) in data set [3] (30µM leucine) is 600 nM; in data set [3] (167µM leucine, 3min) it was 3760 nM; in data set [1] (setting [6]), 2350 nM and 2300 nM; in data set [1] (setting [7]), 2350 nM; in data set [2] (setting [8]), 3900 nM and < 4000 nM; in data set [2] (setting [9]), 3860 nM. The “Bottom of dose-response fit (leucine uptake at maximal inhibition)” value in data set [1] came to 1.093 nmol/mg protein; in data set [2] (BeWo-CTB, four-parameter fit) it was 0.774 nmol/mg protein. Besides, the “Top of dose-response fit” value was 8.426 nmol/mg protein in data set [1] and 4.066 nmol/mg protein in data set [2] (BeWo-CTB, four-parameter fit). The “concentration reaching maximal inhibition (first concentration without significant difference to bottom value)” value in data set [1] is 10 µmol/L. In addition, the “inhibition of leucine uptake” value in data set [1] and in data set [2] (BeWo-CTB (regardless of differentiation stage)) was 87% throughout. Further, the “decrease of intracellular 3H-leucine content of BeWo monolayer” value in data set [5] (10 µM) is reported as “no effect”; in data set [5] (10 µmol/L, end of transfer experiment (6 hours)) it was “intracellular leucine retention; also recorded: unchanged”.

Values taken from PMC7687008, “Small molecule inhibitors provide insights into the relevance of LAT1 and LAT2 in materno‐foetal amino acid transport” (Journal of Cellular and Molecular Medicine, 2020).
